From the CheMixHub viscosity set

Experiment: xn = mol fraction of the nth substance listed

CNC=O + Cc1ccccc1N
viscosity [mPa·s], 100 kPa
Details | x1 = 0.0896 | x1 = 0.1601 | x1 = 0.2501 | x1 = 0.3425 | x1 = 0.4328 | x1 = 0.5424 | x1 = 0.6554 | x1 = 0.7342 | x1 = 0.8414
303.15 K | 3.114 | 3 | 2.853 | 2.702 | 2.553 | 2.369 | 2.179 | 2.045 | 1.86
308.15 K | 2.708 | 2.617 | 2.498 | 2.375 | 2.254 | 2.105 | 1.95 | 1.84 | 1.689
313.15 K | 2.393 | 2.317 | 2.219 | 2.117 | 2.016 | 1.892 | 1.763 | 1.671 | 1.544
318.15 K | 2.081 | 2.022 | 1.946 | 1.865 | 1.786 | 1.688 | 1.585 | 1.513 | 1.411

CCCCCCBr + ClC(Cl)(Cl)Cl
101 kPa
Details | viscosity [mPa·s]
298.15 K, x1 = 0.1135 | 0.8881
298.15 K, x1 = 0.1518 | 0.8858
298.15 K, x1 = 0.1823 | 0.8835
298.15 K, x1 = 0.2319 | 0.8822
298.15 K, x1 = 0.3098 | 0.8844
298.15 K, x1 = 0.474 | 0.8943
298.15 K, x1 = 0.6449 | 0.9113
303.45 K, x1 = 0.0686 | 0.8329
303.45 K, x1 = 0.0894 | 0.8281
303.45 K, x1 = 0.1554 | 0.8277
303.45 K, x1 = 0.1952 | 0.8288
303.45 K, x1 = 0.2666 | 0.8328
303.45 K, x1 = 0.424 | 0.8436
303.45 K, x1 = 0.5955 | 0.8555
303.45 K, x1 = 0.7896 | 0.8708
313.35 K, x1 = 0.0691 | 0.7236
313.35 K, x1 = 0.0909 | 0.723
313.35 K, x1 = 0.1303 | 0.7251
313.35 K, x1 = 0.1568 | 0.7252
313.35 K, x1 = 0.1996 | 0.7259
313.35 K, x1 = 0.2736 | 0.7309
313.35 K, x1 = 0.5015 | 0.7462
313.35 K, x1 = 0.7896 | 0.7649

CCOCCOCCOCC + ClC(Cl)(Cl)Cl
298.15 K, 101 kPa
Details | viscosity [mPa·s]
x1 = 0.0066 | 0.914
x1 = 0.0198 | 0.932
x1 = 0.0498 | 0.975
x1 = 0.0871 | 1.016
x1 = 0.127 | 1.051
x1 = 0.1781 | 1.093
x1 = 0.2051 | 1.115
x1 = 0.2354 | 1.134
x1 = 0.2797 | 1.161
x1 = 0.3206 | 1.18
x1 = 0.3371 | 1.189
x1 = 0.3614 | 1.202
x1 = 0.3768 | 1.21
x1 = 0.4165 | 1.225
x1 = 0.4689 | 1.241
x1 = 0.5264 | 1.257
x1 = 0.5651 | 1.269
x1 = 0.599 | 1.269
x1 = 0.6708 | 1.274
x1 = 0.715 | 1.286
x1 = 0.7943 | 1.293
x1 = 0.8245 | 1.283
x1 = 0.8784 | 1.282
x1 = 0.9126 | 1.282
x1 = 0.9535 | 1.273
